From US20220362577A1, “METHODS FOR GUIDING DIRECT DELIVERY OF DRUGS AND/OR ENERGY TO LESIONS USING COMPUTATIONAL MODELING” (University of Vermont and State Agricultural College, priority 2019, published 2022)

Key:
[1] = tested on: mitochondrial respiration; details: cisplatin-treated cells; cited from earlier work
[2] = tested on: head, neck and gastric carcinomas; details: assumed the same for lung carcinomas; cited from earlier work
[3] = Cisplatin blood concentration versus time after EBUS-TBNI into a patient's lung tumor, fitted with Eq. 14; type: in vivo, human; details: fit of Eq. 14 to blood concentrations after five 8-mg intratumoral injections
Description: Combining Eqs. 2 and 12 gives:
The fitting was achieved by optimizing the values of the two free parameters (kf+ki) and Vf using a gradient-based algorithm to minimize the cost function: […]
Ultrasound guidance was used to attempt to distribute the 5 injections evenly throughout the tumor over an interval of 18 min.

N.N.[Cl][Pt][Cl] [cisplatin]
concentration above which stepwise decrements in mitochondrial respiration were seen [1]: above 5.0 uM | ki, rate constant of flow into the intracellular space [2]: 0.000105 s⁻¹ | ki+kf, sum of rate constants out of the extracellular space [3]: 0.000251 s⁻¹
